This experiment concerns Oryctolagus cuniculus. Description: Compound was evaluated for ocular hypotensive effects (intraocular pressure, IOP) by administering 0.5% of the drug twice daily. Format: functional, Eye.

`CC(C)(C)NC[C@H](O)COc1nsnc1N1CCOCC1` [TIMOLOL]: the Activity came to 21%.

Source of the values: ChEMBL document CHEMBL1130130, “New approaches to antiglaucoma therapy” (1997).
